# Measured values reported in patent publication US11208412B2 (DAEGU-GYEONGBUK MEDICAL INNOVATION FOUNDATION, priority 2017, dated 2021).
# Target: T1, recombinant LRRK2 kinase (Homo sapiens, UniProt Q5S007)
# T1 construct: purchased Signal Chem, Richmond, BC, Canada
# Test: LRRK2 kinase inhibition (Kinase-Glo luminescence)
# Type: biochemical
# Conditions: IC50 grade; 25 μmol/L ATP, LRRKtide, 30° C. 2 hours; read-out: Enzyme activity LRRK2
# Method: Upon completion of the reaction, an equal amount of Kinase-Glo (Promega, Madison, Wis.) solution was added thereto, followed by reaction for 40 minutes. A detection solution was added thereto, followed by further reaction at room temperature for 30 minutes. Then, IC50 of kinase was calculated by measuring the amount of luciferase using a microplate ELISA reader (Bio-Tek).
# T1 sequence (Q5S007 whole entry): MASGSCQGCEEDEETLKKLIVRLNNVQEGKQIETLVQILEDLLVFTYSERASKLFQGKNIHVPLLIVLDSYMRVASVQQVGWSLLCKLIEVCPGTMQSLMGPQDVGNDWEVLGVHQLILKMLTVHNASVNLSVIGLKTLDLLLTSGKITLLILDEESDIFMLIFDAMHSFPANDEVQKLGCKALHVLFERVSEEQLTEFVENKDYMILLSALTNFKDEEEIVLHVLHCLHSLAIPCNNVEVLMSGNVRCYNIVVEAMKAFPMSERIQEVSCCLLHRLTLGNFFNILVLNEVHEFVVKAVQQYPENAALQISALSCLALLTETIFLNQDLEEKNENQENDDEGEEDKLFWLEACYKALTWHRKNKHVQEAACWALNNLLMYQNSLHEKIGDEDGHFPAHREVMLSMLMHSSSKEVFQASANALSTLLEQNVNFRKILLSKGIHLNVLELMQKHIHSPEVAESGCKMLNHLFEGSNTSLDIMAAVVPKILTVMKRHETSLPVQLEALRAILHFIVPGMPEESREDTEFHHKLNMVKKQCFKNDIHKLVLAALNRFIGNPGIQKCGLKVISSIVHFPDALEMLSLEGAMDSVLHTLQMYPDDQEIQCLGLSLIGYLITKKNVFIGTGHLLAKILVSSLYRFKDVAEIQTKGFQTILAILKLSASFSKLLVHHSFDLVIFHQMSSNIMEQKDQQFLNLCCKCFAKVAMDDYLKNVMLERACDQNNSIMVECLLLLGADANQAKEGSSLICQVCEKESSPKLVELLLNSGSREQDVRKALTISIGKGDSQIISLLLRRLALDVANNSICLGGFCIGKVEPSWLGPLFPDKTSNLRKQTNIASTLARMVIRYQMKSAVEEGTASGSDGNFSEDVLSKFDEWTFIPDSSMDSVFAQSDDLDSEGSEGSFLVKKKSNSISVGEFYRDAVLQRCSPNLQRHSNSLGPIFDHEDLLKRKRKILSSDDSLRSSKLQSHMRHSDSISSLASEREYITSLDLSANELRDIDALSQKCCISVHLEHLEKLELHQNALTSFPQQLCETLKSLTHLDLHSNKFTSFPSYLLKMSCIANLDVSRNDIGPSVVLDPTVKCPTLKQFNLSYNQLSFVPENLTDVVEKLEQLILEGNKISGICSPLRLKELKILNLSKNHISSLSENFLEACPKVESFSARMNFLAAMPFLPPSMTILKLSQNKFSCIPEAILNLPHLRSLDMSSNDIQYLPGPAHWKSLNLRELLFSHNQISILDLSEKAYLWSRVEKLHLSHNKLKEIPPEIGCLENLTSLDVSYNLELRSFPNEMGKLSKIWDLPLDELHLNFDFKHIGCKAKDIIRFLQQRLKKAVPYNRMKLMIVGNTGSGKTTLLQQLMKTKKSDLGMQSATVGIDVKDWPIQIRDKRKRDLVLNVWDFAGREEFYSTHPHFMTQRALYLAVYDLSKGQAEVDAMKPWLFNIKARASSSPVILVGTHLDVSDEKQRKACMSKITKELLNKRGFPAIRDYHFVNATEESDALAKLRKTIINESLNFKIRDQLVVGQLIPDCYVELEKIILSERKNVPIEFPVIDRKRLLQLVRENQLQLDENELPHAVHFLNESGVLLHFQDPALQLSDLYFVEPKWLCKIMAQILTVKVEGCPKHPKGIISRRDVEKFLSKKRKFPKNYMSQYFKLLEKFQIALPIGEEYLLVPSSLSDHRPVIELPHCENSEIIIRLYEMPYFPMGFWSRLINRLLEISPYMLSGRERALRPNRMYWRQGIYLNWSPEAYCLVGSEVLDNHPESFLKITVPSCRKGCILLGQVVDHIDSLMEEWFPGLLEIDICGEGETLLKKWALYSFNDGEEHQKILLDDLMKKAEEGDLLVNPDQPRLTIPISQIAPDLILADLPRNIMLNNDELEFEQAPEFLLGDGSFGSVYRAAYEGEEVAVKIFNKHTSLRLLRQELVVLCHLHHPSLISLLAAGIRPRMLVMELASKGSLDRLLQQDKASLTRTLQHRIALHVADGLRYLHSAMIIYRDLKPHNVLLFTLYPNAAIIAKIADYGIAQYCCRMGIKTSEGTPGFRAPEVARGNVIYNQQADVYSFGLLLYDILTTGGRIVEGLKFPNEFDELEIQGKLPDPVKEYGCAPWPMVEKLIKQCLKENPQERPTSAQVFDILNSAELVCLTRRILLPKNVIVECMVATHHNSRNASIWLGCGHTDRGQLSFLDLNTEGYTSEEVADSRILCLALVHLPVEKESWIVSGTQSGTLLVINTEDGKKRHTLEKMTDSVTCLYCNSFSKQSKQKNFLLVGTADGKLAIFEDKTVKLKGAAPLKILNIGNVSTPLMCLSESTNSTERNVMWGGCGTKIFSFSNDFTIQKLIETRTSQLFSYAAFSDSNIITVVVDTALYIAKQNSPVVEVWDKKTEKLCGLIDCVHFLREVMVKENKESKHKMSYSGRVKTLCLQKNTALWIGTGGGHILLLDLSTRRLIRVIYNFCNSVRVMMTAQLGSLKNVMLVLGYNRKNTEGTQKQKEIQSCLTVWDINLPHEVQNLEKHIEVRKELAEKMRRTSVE
row,Structure (SMILES),IC50 [nM]
1,"COc1cc(C(=O)N2CCOCC2)c(F)cc1Nc1nc(NC2CC2)c2c(C#N)c[nH]c2n1 [Example 18, 4-(cyclopropylamino)-2-((5-fluoro-2-methoxy-4-(morpholine-4-carbonyl)phenyl)amino)-7H-pyrrolo[2,3-d]pyrimidine-5-carbonitrile]",10 to 100
2,"COc1cc(C(=O)N2CCC(N3CCOCC3)CC2)c(F)cc1Nc1nc(NC2CC2)c2c(C#N)c[nH]c2n1 [Example 19, 4-(cyclopropylamino)-2-((5-fluoro-2-methoxy-4-(4-morpholinopiperidine-1-carbonyl)phenyl)amino)-7H-pyrrolo[2,3-d]pyrimidine-5-carbonitrile]",10 to 100
3,"CNc1nc(Nc2ccc(C(=O)N3C[C@@H](C)O[C@@H](C)C3)cc2OC)nc2[nH]cc(C#N)c12 [Example 22, 2-((4-((2R,6S)-2,6-dimethylmorpholine-4-carbonyl)-2-methoxyphenyl)amino)-4-(methylamino)-7H-pyrrolo[2,3-d]pyrimidine-5-carbonitrile]",10 to 100
4,"CNc1nc(Nc2cn(C)nc2C)nc2[nH]cc(C#N)c12 [Example 28, 6-((1,3-dimethyl-1H-pyrazole-4-yl)amino)-4-(methylamino)-1H-pyrrolo[2,3-b]pyrimidine-3-carbonitrile]",10 to 100
5,"CNc1nc(Nc2cnn(C)c2C)nc2[nH]cc(C#N)c12 [Example 29, 6-((1,5-dimethyl-1H-pyrazole-4-yl)amino)-4-(methylamino)-1H-pyrrolo[2,3-b]pyrimidine-3-carbonitrile]",10 to 100
6,"CNc1nc(Nc2cn(C(C)C)nc2C)nc2[nH]cc(C#N)c12 [Example 30, 6-((1-isopropyl-3-methyl-1H-pyrazole-4-yl)amino)-4-(methylamino)-1H-pyrrolo[2,3-b]pyrimidine-3-carbonitrile]",10 to 100
7,"Cc1c(Nc2nc(NC3(C)CC3)c3c(C#N)c[nH]c3n2)cnn1C(C)C [Example 38, 2-((1-isopropyl-5-methyl-1H-pyrazole-4-yl)amino)-4-((1-methylcyclopropyl)amino)-7H-pyrrolo[2,3-d]pyrimidine-5-carbonitrile]",< 10
8,"Cc1nn(C(C)C)cc1Nc1nc(NC2(C)CC2)c2c(C#N)c[nH]c2n1 [Example 39, 2-((1-isopropyl-3-methyl-1H-pyrazole-4-yl)amino)-4-((1-methylcyclopropyl)amino)-7H-pyrrolo[2,3-d]pyrimidine-5-carbonitrile]",< 10
9,"Cc1nn(C)cc1Nc1nc(NC2(C)CC2)c2c(C#N)c[nH]c2n1 [Example 40, 2-((1,3-dimethyl-1H-pyrazole-4-yl)amino)-4-((1-methylcyclopropyl)amino)-7H-pyrrolo[2,3-d]pyrimidine-5-carbonitrile]",< 10
10,"Cc1c(Nc2nc(NC3(C)CC3)c3c(C#N)c[nH]c3n2)cnn1C [Example 41, 2-((1,5-dimethyl-1H-pyrazole-4-yl)amino)-4-((1-methylcyclopropyl)amino)-7H-pyrrolo[2,3-d]pyrimidine-5-carbonitrile]",< 10
11,"COc1cc(C(=O)N2CCO[C@H](C)C2)ccc1Nc1nc(NC2(C)CC2)c2c(C#N)c[nH]c2n1 [Example 42, (R)-2-((2-methoxy-4-(2-methylmorpholine-4-carbonyl)phenyl)amino)-4-((1-methylcyclopropyl)amino)-7H-pyrrolo[2,3-d]pyrimidine-5-carbonitrile]",< 10
12,"COc1cc(C(=O)N2CCO[C@@H](C)C2)ccc1Nc1nc(NC2(C)CC2)c2c(C#N)c[nH]c2n1 [Example 43, (S)-2-((2-methoxy-4-(2-methylmorpholine-4-carbonyl)phenyl)amino)-4-((1-methylcyclopropyl)amino)-7H-pyrrolo[2,3-d]pyrimidine-5-carbonitrile]",< 10
13,"COc1cc(C(=O)N2C[C@@H](C)O[C@@H](C)C2)ccc1Nc1nc(NC2(C)CC2)c2c(C#N)c[nH]c2n1 [Example 44, 2-((4-((2R,6S)-2,6-dimethylmorpholine-4-carbonyl)-2-methoxyphenyl)amino)-4-((1-methylcyclopropyl)amino)-7H-pyrrolo[2,3-d]pyrimidine-5-carbonitrile]",10 to 100
14,"COc1cc(C(=O)N2CCC(F)(F)CC2)ccc1Nc1nc(NC2(C)CC2)c2c(C#N)c[nH]c2n1 [Example 45, 2-((4-(4,4-difluoropiperidine-1-carbonyl)-2-methoxyphenyl)amino)-4-((1-methylcyclopropyl)amino)-7H-pyrrolo[2,3-d]pyrimidine-5-carbonitrile]",10 to 100
15,"CNc1nc(Nc2cn(C(C)(C)C(N)=O)nc2C)nc2[nH]cc(C#N)c12 [Example 46, 2-(4-((5-cyano-4-(methylamino)-7H-pyrrolo[2,3-d]pyrimidine-2-yl)amino)-3-methyl-1H-pyrazole-1-yl)-2-methylpropaneamide]",< 10
16,"CNc1nc(Nc2cn(C(C)(C)C#N)nc2C)nc2[nH]cc(C#N)c12 [Example 47, 2-((1-(2-cyanopropane-2-yl)-3-methyl-1H-pyrazole-4-yl)amino)-4-(methylamino)-7H-pyrrolo[2,3-d]pyrimidine-5-carbonitrile]",< 10
17,"CCNc1nc(Nc2ncc(C(=O)N3CCOCC3)cc2OC)nc2[nH]cc(C#N)c12 [Example 48, 4-(ethylamino)-2-((3-methoxy-5-(morpholine-4-carbonyl)pyridine-2-yl)amino)-7H-pyrrolo[2,3-d]pyrimidine-5-carbonitrile]",> 100
18,"Cc1nn(C(C)(C)C#N)cc1Nc1nc(NC2(C)CC2)c2c(C#N)c[nH]c2n1 [Example 49, 2-((1-(2-cyanopropane-2-yl)-3-methyl-1H-pyrazole-4-yl)amino)-4-((1-methylcyclopropyl)amino)-7H-pyrrolo[2,3-d]pyrimidine-5-carbonitrile]",< 10
19,"CNc1nc(Nc2cnn([C@H]3CCN(C4COC4)C[C@@H]3F)c2Cl)nc2[nH]cc(C#N)c12 [Example 50, 2-((5-chloro-1-((3S,4S)-3-fluoro-1-(oxetane-3-yl)piperidine-4-yl)-1H-pyrazole-4-yl)amino)-4-(methylamino)-7H-pyrrolo[2,3-d]pyrimidine-5-carbonitrile]",< 10

# Continued, values first:
row,IC50 [nM],Structure (SMILES)
1,< 10,"CCCNc1nc(Nc2cc(F)c(C(=O)N3CCC(N4CCOCC4)CC3)cc2OC)nc2[nH]cc(C#N)c12 [Example 15, 2-((5-fluoro-2-methoxy-4-(4-morpholinopiperidine-1-carbonyl)phenyl)amino)-4-(propylamino)-7H-pyrrolo[2,3-d]pyrimidine-5-carbonitrile]"
2,< 10,"COc1cc(C(=O)N2CCOCC2)ccc1Nc1nc(NC2CC2)c2c(C#N)c[nH]c2n1 [Example 16, 4-(cyclopropylamino)-2-((2-methoxy-4-(morpholine-4-carbonyl)phenyl)amino)-7H-pyrrolo[2,3-d]pyrimidine-5-carbonitrile]"
3,< 10,"CNc1nc(Nc2ccc(C(=O)N3CCO[C@H](C)C3)cc2OC)nc2[nH]cc(C#N)c12 [Example 20, (R)-2-((2-methoxy-4-(2-methylmorpholine-4-carbonyl)phenyl)amino)-4-(methylamino)-7H-pyrrolo[2,3-d]pyrimidine-5-carbonitrile]"
4,< 10,"CNc1nc(Nc2ccc(C(=O)N3CCO[C@@H](C)C3)cc2OC)nc2[nH]cc(C#N)c12 [Example 21, (S)-2-((2-methoxy-4-(2-methylmorpholine-4-carbonyl)phenyl)amino)-4-(methylamino)-7H-pyrrolo[2,3-d]pyrimidine-5-carbonitrile]"
5,< 10,CNc1nc(Nc2ccc(C(=O)N3CCC(F)(F)CC3)cc2OC)nc2[nH]cc(C#N)c12 [Example 23]
6,< 10,"CCNc1nc(Nc2ccc(C(=O)N3C[C@@H](C)O[C@@H](C)C3)cc2OC)nc2[nH]cc(C#N)c12 [Example 24, 2-((4-((2R,6S)-2,6-dimethylmorpholine-4-carbonyl)-2-methoxyphenyl)amino)-4-(ethylamino)-7H-pyrrolo[2,3-d]pyrimidine-5-carbonitrile]"
7,< 10,"CCNc1nc(Nc2ccc(C(=O)N3CCO[C@H](C)C3)cc2OC)nc2[nH]cc(C#N)c12 [Example 25, (R)-4-(ethylamino)-2-((2-methoxy-4-(2-methylmorpholine-4-carbonyl)phenyl)amino)-7H-pyrrolo[2,3-d]pyrimidine-5-carbonitrile]"
8,< 10,"CCNc1nc(Nc2ccc(C(=O)N3CCO[C@@H](C)C3)cc2OC)nc2[nH]cc(C#N)c12 [Example 26, (S)-4-(ethylamino)-2-((2-methoxy-4-(2-methylmorpholine-4-carbonyl)phenyl)amino)-7H-pyrrolo[2,3-d]pyrimidine-5-carbonitrile]"
9,< 10,"CCNc1nc(Nc2ccc(C(=O)N3CCC(F)(F)CC3)cc2OC)nc2[nH]cc(C#N)c12 [Example 27, 2-((4-(4,4-difluoropiperidine-1-carbonyl)-2-methoxyphenyl)amino)-4-(ethylamino)-7H-pyrrolo[2,3-d]pyrimidine-5-carbonitrile]"
10,< 10,"CNc1nc(Nc2cnn(C(C)C)c2C)nc2[nH]cc(C#N)c12 [Example 31, 6-((1-isopropyl-5-methyl-1H-pyrazole-4-yl)amino)-4-(methylamino)-1H-pyrrolo[2,3-b]pyrimidine-3-carbonitrile]"
11,< 10,"COc1cc(C(=O)N2CCOCC2)ccc1Nc1nc(NC2(C)CC2)c2c(C#N)c[nH]c2n1 [Example 36, 2-((2-methoxy-4-(morpholine-4-carbonyl)phenyl)amino)-4-((1-methylcyclopropyl)amino)-7H-pyrrolo[2,3-d]pyrimidine-5-carbonitrile]"
12,< 10,"COc1cc(C(=O)N2CCOCC2)c(F)cc1Nc1nc(NC2(C)CC2)c2c(C#N)c[nH]c2n1 [Example 37, 2-((5-fluoro-2-methoxy-4-(morpholine-4-carbonyl)phenyl)amino)-4-((1-methylcyclopropyl)amino)-7H-pyrrolo[2,3-d]pyrimidine-5-carbonitrile]"
